SMILES strings stand for the structures.

For the compound `Cc1ccc(S(=O)(=O)C2(CC#Cc3ccc(Cl)cc3)SC(=O)N(C(c3ccccc3)(c3ccccc3)c3ccccc3)C2=O)cc1` (stereo not drawn), the melting point is 221 to 223 °C. The figure for `COc1cc2cc(C(C)C)sc2c(Cl)c1Cl` is less than 37 °C; for `CCc1c(C(F)(F)F)noc1NS(=O)(=O)c1ccccc1` it is 105 to 106 °C; for `CC1=C(C(=O)Nc2ccccn2)C(c2ccccc2Cl)C(C(=O)OCCCCn2c(C)nc3cnccc32)=C(c2ccc(F)cc2)N1` (stereo not drawn) it is 129 to 132 °C.

With `Cc1ccc(-n2ncc(C(=O)O)n2)cc1`, the melting point was in the range of 209 to 211 °C. The compound `O=C(Nc1ccc(Oc2ccccc2F)nc1)N1CCc2ccccc2CC1` returned a melting point of 170 to 172 °C. The figure for `Cc1cccc(NC(=O)NCC(=O)N2C(C(=O)OC(C)(C)C)CCCC2c2ccccc2)c1` (stereo not drawn) is 123 °C; for `CCN1c2ncccc2C(=O)N(C)c2ccc(-c3ccn(C)c3)nc21` it is 187 to 188 °C.

Compound `CN1CCC2(CC1)c1ccccc1Cc1ccccc12` came in with a melting point of 132 to 134 °C. The compound `CC(C#N)=C1CCC2C3CCC4=CC(=O)CCC4(C)C3CCC12C` (stereo not drawn) yielded a melting point of 195 to 196 °C.

The compound `NS(=O)(=O)c1cccc(-c2cccc(-c3nc(-c4ccc(Cl)cc4Cl)cc(C(F)(F)F)n3)c2)c1` came in with a melting point of 202 °C. As to `CCCCc1c(OC)cc(C(=O)O)nc1Cl`, the melting point was in the range of 104 to 106 °C. `CC1=C(n2ccccc2=O)c2cc([N+](=O)[O-])ccc2OC1(C)C` displayed a melting point of 200 °C. On to `O=C(Oc1ccccc1)C1c2ccccc2Oc2ccc(O)cc21` (stereo not drawn), for which the melting point lay within 182 to 184 °C. `CCc1nc(Cl)cc(NC)n1` returned a melting point of 80 to 81 °C. The figure for `COC(=O)c1ccc(Cn2ncc3ccccc32)cc1` is 89 to 90 °C; for `CC(=O)NC[C@H]1CN(c2ccc(N3CCN(CCN4CCOCC4)CC3)c(F)c2)C(=O)O1` it is 150 to 152 °C; for `COc1ccccc1N1CCN(CC(O)COc2cccc3c2CCCC3=O)CC1` (stereo not drawn) it is 120 °C. `NN=C1c2ccccc2-c2ccc(F)cc21` gave a melting point of 161 to 165 °C.

In turn, `CCCc1c2c(cc3c(=O)cc(C(=O)OCC)oc13)CCCC2` registered a melting point of 98 to 99.5 °C. `COc1ccc(C(C)=NNc2ccc(C3=NNC(=O)CC3)cc2)cc1` had a melting point of 204 to 207 °C. Regarding `COc1cc(OS(C)(=O)=O)ccc1C1=NC2=NC=NC(=O)C2=N1`, the melting point lay within 288 to 291 °C.

The compound `N#CNc1ccccc1-c1ccccc1` showed a melting point of 85 to 87 °C. For the compound `CCOC(=O)N1CCN(c2ccc(C3=NNC(=O)CC3C)cc2N)CC1` (stereo not drawn), the melting point lay in the range of 193 to 195 °C.

Turning to `CC(C)N1C(=O)c2cccc(Cl)c2N(C#N)S1(=O)=O`, the melting point fell in the range of 123 to 124 °C. As for `COc1cccc(Cc2ccc(-c3cnn4c(O)ccnc34)cc2)c1`, the melting point was in the range of 246 to 249 °C. In turn, `Cc1cc(Cn2c(-c3ccccc3)nc(Cl)c2CC(=O)O)ccc1O` showed a melting point of 190 to 193 °C.

`CN1CCc2cc(C#CCO)cc3c(=O)c(C(=O)NCc4ccc(Cl)cc4)cn1c23`: the melting point was 165 to 167 °C.

Compound `CNC(=S)N1CCc2c(ncn2C)C1` registered a melting point of 238 °C. `CN1CCN(CC(=O)N2CC=C(c3cccc(C(F)(F)F)c3)n3ncc(C#N)c32)CC1` registered a melting point of 178 to 180 °C. To `CN1CN(c2ccccc2)C2(CCN(CCCn3c(=O)[nH]c4ccccc43)CC2)C1=O` belongs 186 °C; to `O=C(Cl)N1CC(Oc2cc(C(F)(F)F)ccc2Cl)C1`, 40 to 45 °C; to `O=C(O)c1cc2cc(Cl)ccc2nc1N[C@@H](Cc1ccc(Oc2ccc(Br)cn2)cc1)C(=O)O`, 145 to 150 °C.

`OCC(O)CSC(=S)Nc1ccccn1` (stereo not drawn) registered a melting point of 98 °C. `Cn1c(=O)nc(Sc2ccccc2)sc1=S` gave a melting point of 116 to 118 °C. Regarding `COC(=O)c1scc(Cl)c1N`, the melting point was in the range of 62 to 64 °C. Turning to `CCCCN1CCC(CNC(=O)c2ccc(N)n3cc(C(C)C)nc23)CC1`, the melting point was 138 °C. For the compound `CC(C)[C@H](NC(=O)N(C)Cc1csc(C2CC2)n1)C(=O)N[C@@H](Cc1ccccc1)C[C@H](O)[C@H](Cc1ccccc1)NC(=O)OCc1cncs1`, the melting point fell in the range of 70 to 71 °C. `COc1cc(OC)nc(NC(=O)NS(=O)(=O)C(C)c2ccccc2[N+](=O)[O-])n1` (stereo not drawn): the melting point lay in the range of 168 to 170 °C.

`CCOC(=O)Cn1cc(-c2ccc(F)cc2)c(-c2ccc(S(C)(=O)=O)cc2)n1`: the melting point lay in the range of 116 to 118 °C. As for `CC(=O)OCc1ccc2oc(=O)c(C(=O)Oc3cc(F)ccc3Br)cc2c1`, the melting point is 148 to 150 °C. The figure for `N#CCCNC(=O)c1cccc(-c2ccc3c(c2)N(Cc2cccc(Cl)c2Cl)CC3)c1` is 160 to 161 °C; for `COc1ccc(C(O)(c2ccc(OC)cc2)C2CCNCC2)cc1` it is 153 to 155 °C; for `Cc1cc(C(Cl)=NO)ccc1Br` it is 77 to 78 °C.

`O=S1(=O)NCN(C2CC2)c2c(F)cc(F)cc21` showed a melting point of 149 to 151 °C.

In turn, `COc1ccccc1CNc1ccc2c(C(=N)c3ccc(F)cc3)cccc2n1` gave a melting point of 155 °C. `Cc1c(SCCCSc2nnnn2CC(=O)O)ccnc1CSc1ccncc1` returned a melting point of 185 to 187 °C. The figure for `Cc1nn2c(C(F)(F)F)cc(-c3ccc(Cl)cc3)nc2c1C#N` is 238 °C; for `O=C(Nc1ccccc1O)c1ccc(O)c(Cl)c1` it is 172 to 174 °C; for `CC1=C(C(=O)OCCN(C)Cc2ccccc2)C(c2ccccc2C(F)(F)F)c2c(ccnc2OCC(C)C)N1` (stereo not drawn) it is 148 to 150 °C. Consider `CNC(=O)ON=C1SC(C)C(=O)N1N(C)C` (stereo not drawn), for which the melting point was 110 to 113 °C. Regarding `Cc1c(NC(=O)C(CS)CC(C)C)cccc1C(=O)O` (stereo not drawn), the melting point was in the range of 166 to 168 °C. Compound `O=C(Cn1c2c(c3c4c(ccc31)OCC=C4)CCN(Cc1ccccc1)CC2)Nc1ccccc1` had a melting point of 134 to 136 °C. For `CCc1ccc2oc(C(=O)Nc3ccc(-c4ccc(S(=O)(=O)NC(C(=O)OC)C(C)C)cc4)cc3)c(C)c2c1O` (stereo not drawn), the melting point lay in the range of 75 to 80 °C. As to `CCOc1cnc(-c2cc(Cl)c(OC)c3ccccc23)s1`, the melting point was in the range of 67 to 68 °C. In turn, `O=C(O)C1=Cc2cc(-c3ccc(OC(F)(F)F)cc3)ccc2S(=O)(=O)CC1` came in with a melting point of 284 to 285 °C. In the case of `CCOc1ccc(CC(CN2CC(=O)OC(=O)C2)N(CCN2CC(=O)OC(=O)C2)CC(=O)O)cc1` (stereo not drawn), the melting point was 172 to 174 °C. `Cc1cccc(-c2n[nH]cc2-c2ccc(F)c(-c3cn4c(n3)S(=O)(=O)CC4)c2)n1` yielded a melting point of 134 to 138 °C.

`N#Cc1cc(SC(F)(F)F)[nH]c1-c1ccc(Cl)cc1` showed a melting point of 203 to 205 °C. `CC1(C)c2c(Cl)cccc2S(=O)(=O)N1CC=O` registered a melting point of 156 °C.

The compound `CCCCCCCCCC(=O)Nc1ccccc1` came in with a melting point of 65 to 66 °C. To `COc1ccc(C2CN(c3cc(C)c4c(c3C)CC(C)(C)O4)CCO2)cc1` (stereo not drawn) belongs 107 to 108 °C; to `O=CC(=Cc1ccccc1Br)C(C=O)=Cc1ccccc1Br`, 194 to 195 °C; to `CC(=O)Nc1nc2ccccc2c2c(CC(C)C)n(C)nc12`, 130 to 131 °C. `CCSNc1c(C#N)c(C)nn1-c1c(Cl)cc(C(F)(F)F)cc1Cl` showed a melting point of 160 to 161 °C. `COc1nc(-c2c(F)cccc2F)nn1-c1ccccc1C(F)(F)F` returned a melting point of 118 to 119 °C. Turning to `COc1nc(NC(=O)NS(=O)(=O)c2ccccc2OC(Cl)=CCl)nc(OC)n1`, the melting point was 199 to 200 °C.

In the case of `COc1cc(-c2csc(NCCCCCC(=O)Nc3ccc(C(F)(F)F)cc3)n2)cc([N+](=O)[O-])c1O`, the melting point lay within 160 to 162 °C. On to `Cn1cc(-c2ccccc2)nc1CO`, for which the melting point was 191 to 192 °C. With `C=CCNc1nc(N)nc2c1ncn2C1CC(F)C(CO)O1` (stereo not drawn), the melting point was 128 to 129 °C. `Nc1ccc(Oc2ccc(C3(c4ccc(Oc5ccc(N)c(O)c5)cc4)C4CC5CC(C4)CC3C5)cc2)cc1O` had a melting point greater than 160 °C. For the compound `O=C(Nc1cccc(-c2ccnc3c(C(=O)c4cccs4)cnn23)c1)c1cnccn1`, the melting point was in the range of 222 to 224 °C. With `O=C(NC(CS)Cc1ccccc1)N1CCN(c2cccc(C(F)(F)F)c2)CC1` (single isomer, unassigned; (+)), the melting point lay in the range of 130 to 132 °C.

As for `OC1(c2ccc3c(c2)OCO3)CCNCC1`, the melting point is 135 to 138 °C. The compound `O=c1[nH]c2cc3ccccc3cc2[nH]c1=O` yielded a melting point greater than 250 °C. As for `Cc1nc(NCc2ccccc2)sc1C(=O)NCc1ccccc1`, the melting point lay in the range of 169 to 172 °C. `CCOC(=O)CC[C@H](NC(=O)c1csc(CCCc2cc3c(=O)[nH]c(N)nc3[nH]2)c1)C(=O)OCC`: the melting point was in the range of 81 to 82 °C. The compound `CN(c1ccccc1)c1ncnc2cc(C(F)(F)F)ccc12` registered a melting point of 135 to 137 °C. The figure for `CCC(=S)OC1(C(=O)COC(=O)C(C)C)CCC2C3CC(C)C4=CC(=O)C=CC4(C)C3C(O)CC21C` (stereo not drawn) is 151 to 152 °C; for `CC(C)n1c(=Nc2ccccc2)sc2ncccc2c1=O` it is 85 to 86 °C; for `OCCCOc1cccc2sccc12` it is 82 °C. In turn, `CS(=O)(=O)Nc1ccnn1-c1ncc(Cl)cc1Cl` had a melting point of 52 to 54 °C. The compound `O=[N+]([O-])c1cccc(C=CC=Cc2ccccc2)c1` registered a melting point of 144 °C. To `OC1CC=CCC1N1CCN(C2CC=CCC2O)CC1` (stereo not drawn) belongs 207 to 209 °C; to `COC(=O)c1cc(O)cc(O)c1C`, 136 to 138 °C. The figure for `C=C(c1ccccc1)c1cccc(C(=NOCc2ccc(OCc3nc(-c4ccccc4)oc3C)cc2)C(=O)O)c1` is 171 to 172 °C; for `Cc1nc(NC(=O)Nc2ccccc2)n(C)c(=O)c1CCN1CCC(Cc2nc3ccccc3n2Cc2ccc(F)cc2)CC1` it is 157 °C. On to `N#Cc1ccc(C2C3=C(CCCC3)NC3=C2C(=O)CCC3)cc1C(F)(F)F` (stereo not drawn), for which the melting point was in the range of 210 to 212 °C.

For the origin of these results see a melting point compilation (Tetko et al.; mined from patent text by program, amines drawn as free bases though some values may be those of a salt).
